Laboratory results published in patent US9686984B2, “Macrocyclic picolinamides as fungicides” (DOW AGROSCIENCES LLC, priority 2014, dated 2017).
Where two headings read alike, the source gives them in different places. Blank lines part the entries; values can stand above or below the compound they belong to.

Legend:
[1] = system: Zymoseptoria tritici; experiment: Leaf Blotch of Wheat (SEPTTR) disease control on wheat seedlings; type: in vivo; settings: for pest or weed control at 121.5 g/ha: Low Volume (121.5 g/H); for pest or weed control at 100 µg/mL: High Volume (100 ppm)
Method: Example A: Evaluation of Fungicidal Activity: Leaf Blotch of Wheat (Mycosphaerella graminicola; Anamorph: Zymoseptoria tritici; Bayer code […]) Technical grades of materials were dissolved in acetone, which were then mixed with nine volumes of water containing 110 ppm Triton X-100. The fungicide solutions were applied onto wheat seedlings using an automated booth sprayer to run-off. All sprayed plants were allowed to air dry prior to further handling. All fungicides were evaluated using the aforementioned method for their activity vs. all target diseases, unless stated otherwise. Wheat leaf blotch and brown rust activity were also evaluated using track spray applications, in which case the fungicides were formulated as EC formulations, containing 0.1% Trycol 5941 in the spray solutions. Wheat plants (variety Yuma) were grown from seed in a greenhouse in 50% mineral soil/50% soil-less Metro mix until the first leaf was fully emerged, with 7-10 seedlings per pot. These plants were inoculated with an aqueous spore suspension of Septoria tritici either prior to or after fungicide treatments. After inoculation the plants were kept in 100% relative humidity (one day in a dark dew chamber followed by two to three days in a lighted dew chamber at 20° C.) to permit spores to germinate and infect the leaf. The plants were then transferred to a greenhouse set at 20° C. for disease to develop. When disease symptoms were fully expressed on the 1st leaves of untreated plants, infection levels were assessed on a scale of 0 to 100 percent disease severity. Percent disease control was calculated using the ratio of disease severity on treated plants relative to untreated plants.

[2] = system: Puccinia triticina; experiment: Wheat Brown Rust (PUCCRT) disease control on wheat seedlings; type: in vivo; settings: for pest or weed control at 121.5 g/ha: Low Volume (121.5 g/H); for pest or weed control at 100 µg/mL: High Volume (100 ppm)
Method: Technical grades of materials were dissolved in acetone, which were then mixed with nine volumes of water containing 110 ppm Triton X-100. The fungicide solutions were applied onto wheat seedlings using an automated booth sprayer to run-off. All sprayed plants were allowed to air dry prior to further handling. All fungicides were evaluated using the aforementioned method for their activity vs. all target diseases, unless stated otherwise. Wheat leaf blotch and brown rust activity were also evaluated using track spray applications, in which case the fungicides were formulated as EC formulations, containing 0.1% Trycol 5941 in the spray solutions. Wheat plants (variety Yuma) were grown from seed in a greenhouse in 50% mineral soil/50% soil-less Metro mix until the first leaf was fully emerged, with 7-10 seedlings per pot. These plants were inoculated with an aqueous spore suspension of Septoria tritici either prior to or after fungicide treatments. After inoculation the plants were kept in 100% relative humidity (one day in a dark dew chamber followed by two to three days in a lighted dew chamber at 20° C.) to permit spores to germinate and infect the leaf. The plants were then transferred to a greenhouse set at 20° C. for disease to develop. When disease symptoms were fully expressed on the 1st leaves of untreated plants, infection levels were assessed on a scale of 0 to 100 percent disease severity. Percent disease control was calculated using the ratio of disease severity on treated plants relative to untreated plants. Example B: Evaluation of Fungicidal Activity: Wheat Brown Rust (Puccinia triticina; Synonym: Puccinia recondita f. sp. tritici; Bayer code PUCCRT) Wheat plants (variety Yuma) were grown from seed in a greenhouse in 50% mineral soil/50% soil-less Metro mix until the first leaf was fully emerged, with 7-10 seedlings per pot. These plants were inoculated with an aqueous spore suspension of Puccinia triticina either prior to or after fungicide treatments. After inoculation the plants were kept in a dark dew room at 22° C. with 100% relative humidity overnight to permit spores to germinate and infect the leaf. The plants were then transferred to a greenhouse set at 24° C. for disease to develop. Fungicide formulation, application and disease assessment followed the procedures as described in the Example A.

[3] = system: Phakopsora pachyrhizi; experiment: Asian Soybean Rust (PHAKPA) disease control; type: in vivo; settings: 25 ppm
Method: Example H: Evaluation of Fungicidal Activity: Asian Soybean Rust (Phakopsora pachyrhizi; Bayer Code […]) Technical grades of materials were dissolved in acetone, which were then mixed with nine volumes of water containing 0.011% Tween 20. The fungicide solutions were applied onto soybean seedlings using an automated booth sprayer to run-off. All sprayed plants were allowed to air dry prior to further handling. Soybean plants (variety Williams 82) were grown in soil-less Metro mix, with one plant per pot. Two weeks old seedlings were used for testing. Plants were inoculated either 3 days prior to or 1 day after fungicide treatments. Plants were incubated for 24 h in a dark dew room at 22° C. and 100% relative humidity then transferred to a growth room at 23° C. for disease to develop. Disease severity was assessed on the sprayed leaves.

[4] = 24 h, 1 Day Protectant, read-out: SEPTTR disease control, 1 DP
[5] = 72 h, 3 Day Curative, read-out: SEPTTR disease control, 3 DC
[6] = 24 h, 1 Day Protectant, read-out: PUCCRT disease control, 1 DP
[7] = 72 h, 3 Day Curative, read-out: PUCCRT disease control, 3 DC

SMILES: COc1ccnc(C(=O)N[C@H]2CCO[C@H](CCc3ccccc3)[C@@H](CCC(C)C)[C@H](C)OC2=O)c1OCOC(C)=O [Compound 26]
- pest or weed control at 121.5 g/ha [1, 4]: > 70%
- pest or weed control at 121.5 g/ha [1, 5]: > 70%
- pest or weed control at 121.5 g/ha [2, 6]: > 70%
- pest or weed control at 121.5 g/ha [2, 7]: > 70%
- melting point: 48 to 54 °C

SMILES: COc1ccnc(C(=O)N[C@H]2CCO[C@H](CCc3ccc(F)cc3)[C@@H](CCC(C)C)[C@H](C)OC2=O)c1OCOC(=O)C(C)C [Compound 39]
- pest or weed control at 121.5 g/ha [1, 4]: > 70%
- pest or weed control at 121.5 g/ha [1, 5]: < 70%
- pest or weed control at 121.5 g/ha [2, 6]: > 70%
- pest or weed control at 121.5 g/ha [2, 7]: > 70%
- melting point: 49 to 54 °C

SMILES: CCC[C@H]1OCC[C@H](NC(=O)c2nccc(OC)c2OCOC(=O)COCC)C(=O)O[C@@H](C)[C@@H]1Cc1ccccc1 [Compound 43]
- pest or weed control at 100 µg/mL [1, 4]: > 70%
- pest or weed control at 121.5 g/ha [1, 4]: > 70%
- pest or weed control at 100 µg/mL [1, 5]: > 70%
- pest or weed control at 121.5 g/ha [1, 5]: > 70%
- pest or weed control at 100 µg/mL [2, 6]: > 70%
- pest or weed control at 121.5 g/ha [2, 6]: > 70%
- pest or weed control at 100 µg/mL [2, 7]: > 70%
- pest or weed control at 121.5 g/ha [2, 7]: > 70%
- PHAKPA disease control, 1DP ([3]; 1 Day Protectant): A (>70)
- PHAKPA disease control, 3DC ([3]; 3 Day Curative): A (>70)

SMILES: COc1ccnc(C(=O)N[C@H]2CCOC[C@@H](Cc3ccccc3-c3ccccc3)[C@H](C)OC2=O)c1OCOC(=O)C(C)C [Compound 40]
- pest or weed control at 121.5 g/ha [1, 4]: > 70%
- pest or weed control at 121.5 g/ha [1, 5]: > 70%
- pest or weed control at 121.5 g/ha [2, 6]: > 70%
- pest or weed control at 121.5 g/ha [2, 7]: > 70%
- melting point: 54 to 59 °C

SMILES: COc1ccnc(C(=O)N[C@H]2CCO[C@H](CCc3ccc(F)cc3)[C@@H](CCC(C)C)[C@H](C)OC2=O)c1OCOC(C)=O [Compound 27]
- pest or weed control at 121.5 g/ha [1, 4]: > 70%
- pest or weed control at 121.5 g/ha [1, 5]: > 70%
- pest or weed control at 121.5 g/ha [2, 6]: > 70%
- pest or weed control at 121.5 g/ha [2, 7]: > 70%
- melting point: 49 to 54 °C

Continued, in another order:

- melting point: 44 to 46 °C
SMILES: CCCC[C@H]1[C@H](C)OC(=O)[C@@H](NC(=O)c2nccc(OC)c2O)CCO[C@@H]1CC [Compound 67]
- pest or weed control at 100 µg/mL [1, 4]: > 70%
- pest or weed control at 100 µg/mL [1, 5]: < 70%
- pest or weed control at 100 µg/mL [2, 6]: > 70%
- pest or weed control at 100 µg/mL [2, 7]: > 70%

- melting point: 55 to 60 °C
SMILES: COc1ccnc(C(=O)N[C@H]2CCO[C@H](Cc3ccccc3)[C@@H](CCC(C)C)[C@H](C)OC2=O)c1OCOC(C)=O [Compound 29]
- pest or weed control at 121.5 g/ha [1, 4]: > 70%
- pest or weed control at 121.5 g/ha [1, 5]: > 70%
- pest or weed control at 121.5 g/ha [2, 6]: > 70%
- pest or weed control at 121.5 g/ha [2, 7]: > 70%

- melting point: 52 to 56 °C
SMILES: CCC[C@H]1OCC[C@H](NC(=O)c2nccc(OC)c2O)C(=O)O[C@@H](C)[C@@H]1Cc1ccccc1 [Compound 50]
- pest or weed control at 100 µg/mL [1, 4]: > 70%
- pest or weed control at 100 µg/mL [1, 5]: > 70%
- pest or weed control at 100 µg/mL [2, 6]: > 70%
- pest or weed control at 100 µg/mL [2, 7]: > 70%
